From PubChem BioAssay AID1259407 (Chemical Carcinogenesis Research Information System (CCRIS), 2018) come the findings set out here.

The source made the active and inactive calls. The rule behind the calls is not given here.

The data set has as its system CCRIS mutagenicity, Ames/micronucleus/aberration tests. Briefly: CCRIS mutagenicity studies.

With `CCCCCCCCCc1ccc(OP(=O)(Oc2ccccc2)Oc2ccccc2)cc1`, the mutagenic call runs as follows: (Test System: AMES SALMONELLA TYPHIMURIUM, Strain/Indicator: TA97, Metabolic Activation: HAMSTER, LIVER, S-9, AROCLOR 1254 (5, 10 OR 30%), Method: PREINCUBATION) “inactive; negative”; (Test System: AMES SALMONELLA TYPHIMURIUM, Strain/Indicator: TA97, Metabolic Activation: RAT, LIVER, S-9, AROCLOR 1254 (10%), Method: PREINCUBATION) “inactive; negative”; (Test System: AMES SALMONELLA TYPHIMURIUM, Strain/Indicator: TA97, Metabolic Activation: RAT, LIVER, S-9, AROCLOR 1254 (30%), Method: PREINCUBATION) “inactive; negative”; (Test System: AMES SALMONELLA TYPHIMURIUM, Strain/Indicator: TA98, Metabolic Activation: HAMSTER, LIVER, S-9, AROCLOR 1254 (10 OR 30%), Method: PREINCUBATION) “inactive; negative”; (Test System: AMES SALMONELLA TYPHIMURIUM, Strain/Indicator: TA98, Metabolic Activation: NONE, Method: PREINCUBATION) “inactive; negative”; (Test System: AMES SALMONELLA TYPHIMURIUM, Strain/Indicator: TA98, Metabolic Activation: RAT, LIVER, S-9, AROCLOR 1254 (10 OR 30%), Method: PREINCUBATION) “inactive; negative”. The mutagenic call (Test System: AMES SALMONELLA TYPHIMURIUM, Strain/Indicator: TA100, Metabolic Activation: HAMSTER, LIVER, S-9, AROCLOR 1254 (10 OR 30%), Method: PREINCUBATION) was “inactive; negative”; the mutagenic call (Test System: AMES SALMONELLA TYPHIMURIUM, Strain/Indicator: TA100, Metabolic Activation: NONE, Method: PREINCUBATION) is “inactive; negative”; the mutagenic call (Test System: AMES SALMONELLA TYPHIMURIUM, Strain/Indicator: TA100, Metabolic Activation: RAT, LIVER, S-9, AROCLOR 1254 (10 OR 30%), Method: PREINCUBATION) was “inactive; negative”; the mutagenic call (Test System: AMES SALMONELLA TYPHIMURIUM, Strain/Indicator: TA1535, Metabolic Activation: HAMSTER, LIVER, S-9, AROCLOR 1254 (10 OR 30%), Method: PREINCUBATION) was “inactive; negative”; the mutagenic call (Test System: AMES SALMONELLA TYPHIMURIUM, Strain/Indicator: TA1535, Metabolic Activation: NONE, Method: PREINCUBATION) is “inactive; negative”; the mutagenic call (Test System: AMES SALMONELLA TYPHIMURIUM, Strain/Indicator: TA1535, Metabolic Activation: RAT, LIVER, S-9, AROCLOR 1254 (10 OR 30%), Method: PREINCUBATION) is “inactive; negative”. Besides, the mutagenic call runs as follows: (Test System: AMES SALMONELLA TYPHIMURIUM, Strain/Indicator: TA1537, Metabolic Activation: HAMSTER, LIVER, S-9, AROCLOR 1254 (5, 10 OR 30%), Method: PREINCUBATION) “inactive; negative”; (Test System: AMES SALMONELLA TYPHIMURIUM, Strain/Indicator: TA1537, Metabolic Activation: NONE, Method: PREINCUBATION) “inactive; negative”; (Test System: AMES SALMONELLA TYPHIMURIUM, Strain/Indicator: TA1537, Metabolic Activation: RAT, LIVER, S-9, AROCLOR 1254 (5, 10 OR 30%), Method: PREINCUBATION) “inactive; negative”.
Turning to `CC1(C)CON(Cc2ccccc2Cl)C1=O`, the mutagenic call was “inactive; negative (purity 88.8%)” (End Point: In vivo chromosomal aberrations, Test System: Bone marrow, Species: Rat, Strain/Sex: Sprague-Dawley/Male, Route: Gavage); “inactive; negative (purity 92.4%)” (Test System: Ames Salmonella typhimurium, Strain/Indicator: TA98, Metabolic Activation: None, Method: Standard Plate); “inactive; negative (purity 92.4%)” (Test System: Ames Salmonella typhimurium, Strain/Indicator: TA98, Metabolic Activation: Rat, liver, S-9, Aroclor 1254, Method: Standard Plate); “inactive; negative (purity 92.4%)” (Test System: Ames Salmonella typhimurium, Strain/Indicator: TA100, Metabolic Activation: None, Method: Standard Plate); “inactive; negative (purity 92.4%)” (Test System: Ames Salmonella typhimurium, Strain/Indicator: TA100, Metabolic Activation: Rat, liver, S-9, Aroclor 1254, Method: Standard Plate); “inactive; negative (purity 92.4%)” (Test System: Ames Salmonella typhimurium, Strain/Indicator: TA1535, Metabolic Activation: None, Method: Standard Plate). For the same compound, the mutagenic call runs as follows: (Test System: Ames Salmonella typhimurium, Strain/Indicator: TA1535, Metabolic Activation: Rat, liver, S-9, Aroclor 1254, Method: Standard Plate) “inactive; negative (purity 92.4%)”; (Test System: Ames Salmonella typhimurium, Strain/Indicator: TA1537, Metabolic Activation: None, Method: Standard Plate) “inactive; negative (purity 92.4%)”; (Test System: Ames Salmonella typhimurium, Strain/Indicator: TA1537, Metabolic Activation: Rat, liver, S-9, Aroclor 1254, Method: Standard Plate) “inactive; negative (purity 92.4%)”; (Test System: Ames Salmonella typhimurium, Strain/Indicator: TA1538, Metabolic Activation: None, Method: Standard Plate) “inactive; negative (purity 92.4%)”; (Test System: Ames Salmonella typhimurium, Strain/Indicator: TA1538, Metabolic Activation: Rat, liver, S-9, Aroclor 1254, Method: Standard Plate) “inactive; negative (purity 92.4%)”; (Test System: UDS Rat hepatocytes, Strain/Indicator: Thymidine incorporation, Metabolic Activation: None, Method: Autoradiography) “inactive; negative (purity 88.8%)”.
Turning to `O=C(O)c1ccccn1`, the mutagenic call runs as follows: (Test System: AMES SALMONELLA TYPHIMURIUM, Strain/Indicator: TA98, Metabolic Activation: HAMSTER, LIVER, S-9, AROCLOR 1254, Method: STANDARD PLATE) “inactive; negative”; (Test System: AMES SALMONELLA TYPHIMURIUM, Strain/Indicator: TA98, Metabolic Activation: NONE, Method: STANDARD PLATE) “inactive; negative”; (Test System: AMES SALMONELLA TYPHIMURIUM, Strain/Indicator: TA98, Metabolic Activation: RAT, LIVER, S-9, AROCLOR 1254, Method: STANDARD PLATE) “inactive; negative”; (Test System: AMES SALMONELLA TYPHIMURIUM, Strain/Indicator: TA100, Metabolic Activation: HAMSTER, LIVER, S-9, AROCLOR 1254, Method: STANDARD PLATE) “inactive; negative”; (Test System: AMES SALMONELLA TYPHIMURIUM, Strain/Indicator: TA100, Metabolic Activation: NONE, Method: STANDARD PLATE) “inactive; negative”; (Test System: AMES SALMONELLA TYPHIMURIUM, Strain/Indicator: TA100, Metabolic Activation: RAT, LIVER, S-9, AROCLOR 1254, Method: STANDARD PLATE) “inactive; negative”. For the same compound, the mutagenic call (Test System: AMES SALMONELLA TYPHIMURIUM, Strain/Indicator: TA1535, Metabolic Activation: HAMSTER, LIVER, S-9, AROCLOR 1254, Method: STANDARD PLATE) was “inactive; negative”; the mutagenic call (Test System: AMES SALMONELLA TYPHIMURIUM, Strain/Indicator: TA1535, Metabolic Activation: NONE, Method: STANDARD PLATE) is “inactive; negative”; the mutagenic call (Test System: AMES SALMONELLA TYPHIMURIUM, Strain/Indicator: TA1535, Metabolic Activation: RAT, LIVER, S-9, AROCLOR 1254, Method: STANDARD PLATE) was “inactive; negative”; the mutagenic call (Test System: AMES SALMONELLA TYPHIMURIUM, Strain/Indicator: TA1537, Metabolic Activation: HAMSTER, LIVER, S-9, AROCLOR 1254, Method: STANDARD PLATE) was “inactive; negative”; the mutagenic call (Test System: AMES SALMONELLA TYPHIMURIUM, Strain/Indicator: TA1537, Metabolic Activation: NONE, Method: STANDARD PLATE) is “inactive; negative”; the mutagenic call (Test System: AMES SALMONELLA TYPHIMURIUM, Strain/Indicator: TA1537, Metabolic Activation: RAT, LIVER, S-9, AROCLOR 1254, Method: STANDARD PLATE) is “inactive; negative”. The mutagenic call is, setting by setting: (Test System: CHINESE HAMSTER OVARY CELLS, Strain/Indicator: CHO CELLS (HPRT)/6-THIOGUANINE, Metabolic Activation: NONE, Method: STANDARD PLATE) “inactive; negative”; (Test System: MOUSE LYMPHOMA CELLS, Strain/Indicator: L5178Y TK+/-, Metabolic Activation: NONE, Method: TFT RESISTANCE) “inactive; negative”; (Test System: MOUSE LYMPHOMA CELLS, Strain/Indicator: L5178Y TK+/-, Metabolic Activation: RAT, LIVER, S-9, AROCLOR 1254, Method: TFT RESISTANCE) “inactive; negative”; (Test System: MOUSE LYMPHOMA, Strain/Indicator: L5178Y (TK+/TK-), Metabolic Activation: NONE, Method: SUSPENSION/PLATE) “active; positive. reevaluation of results: equivocal”; (Test System: MOUSE LYMPHOMA, Strain/Indicator: L5178Y (TK+/TK-), Metabolic Activation: RAT, LIVER, S-9, AROCLOR 1254, Method: SUSPENSION/PLATE) “active; positive. reevaluation of results: equivocal”.
